Measured values as given in patent EP2550964A1, “Temsirolimus for use in the prevention and/or treatment of a delta 9-tetrahydrocannabinol-induced anxiety disorder” (Universitat Pompeu-Fabra, priority 2011, dated 2013).

How the values were obtained:
Format in all cases: in vivo
mice [1] = assay: Antinociception, acetic acid visceral pain test (number of writhes)
Protocol: This visceral pain test was performed 120 min after THC administration. Mice received an i.p. administration of acetic acid (0.8 % solution) injected in a volume of […] of body weight. Immediately after, mice were placed in individual transparent cylinders (16 cm high, 16 cm diameter) for 20 min. The number of writhes was counted during 15 min, starting 5 min after acetic acid administration.

mice [2] = system: mice
Protocol: Elevated plus maze test. The elevated plus maze test was performed in a black Plexiglas apparatus with four arms (29 cm long x 5 cm wide) set in cross from a neutral central square (5 cm x 5 cm) elevated 40 cm above the floor. Five-min test sessions were performed 120 min after drug administration through intraperitoneal injection (temsirolimus and/or THC, and their vehicles). The percentage of time spent in the open arms was determined as a measure of anxiety-like processes. The model is based on rodents' aversion of open spaces. Anxiety reduction in the elevated plus maze test is indicated by an increase in the proportion of time spent in the open arms

mice [3] = assay: Object-recognition task (V-maze, discrimination index)
Protocol: Object-recognition memory was assayed in the V-maze, a black Plexiglas maze with two corridors (30 cm long x 4.5 cm wide) set in V with a 90 degrees angle, and 15 cm high walls. The test was performed as previously described (Puighermanal, E. et al., 2009. Nature Neuroscience, 12:1152-1158). Briefly, a discrimination index was calculated in the test session. All the drugs (temsirolimus or THC and their vehicles) were injected intraperitoneally after the training session. Objects to be explored in the test were made out of different materials (marble, wood or plastic) and shapes, and had been tested in previous experiments to show no preference or dislike for control mice. On the first day, mice were placed for 9 min in the V-maze for habituation. On the second day, mice were placed back in the V-maze where two objects were positioned at the end of the corridors. On the next day (test day), mice were placed in the V-maze where one of the objects was replaced by a new object. The time spent exploring the familiar object (Tf) and the novel object (Tn) were counted and the discrimination index (D.I.) was calculated as follows: D.I.= [Tn-Tf]/[Tn+Tf]. D.I. close to zero means a cognitive deficit, while D.I. close to 0.5 means a good cognitive function in this memory test.

| Structure (SMILES) | influence on the analgesic capacity of THC (mice [1]; pre-treatment with temsirolimus 1 mg/kg/day (3 mg/m^2/day) and THC 10 mg/kg/day (30 mg/m^2/day), Figure 6) | influence on the anxiolytic effect of THC (mice [2]; temsirolimus 1 mg/kg/day (3 mg/m^2/day), THC 0.3 mg/kg/day (0.9 mg/m^2/day), Figure 5) | blockade of the anxiogenic effects of THC (mice [2]; temsirolimus 1 mg/kg/day (3 mg/m^2/day), THC 10 mg/kg/day (30 mg/m^2/day), i.p., test 120 min after administration, Figure 4) | blockade of the amnesic effect of THC (mice [3]; pre-treatment with temsirolimus 1 mg/kg/day (3 mg/m^2/day), THC 10 mg/kg/day (30 mg/m^2/day), Figure 2) | prevention of the THC cognitive deficit on chronic co-administration (mice [3]; temsirolimus 1 mg/kg/day (3 mg/m^2/day) together with THC 10 mg/kg/day (30 mg/m^2/day), chronic, Figure 3B) | effects on the recognition memory (mice [3]; temsirolimus alone, 1 mg/kg/day (3 mg/m^2/day), i.p., Figure 1) | amnesic effects (object-recognition test) (mice [3]; temsirolimus alone, high doses 10, 30 and 100 mg/kg/day (30, 90 and 300 mg/m^2/day), i.p., Figure 1) | analgesic effects (abdominal writhes) (mice [1]; mouse, in vivo) | anxiety-like effect of THC at low dose (mice [2]; mouse, in vivo) | anxiety-like effect of THC at high doses (mice [2]; mouse, in vivo, 10 mg/kg/day) | cognitive deficit on chronic administration (object-recognition test) (mice [3]; mouse, in vivo) | persistence of cognitive deficit after finishing the exposition to THC (mice [3]; mouse, in vivo) | amnesic effect in the object-recognition test (mice [3]; mouse, in vivo, ip) |
| --- | --- | --- | --- | --- | --- | --- | --- | --- | --- | --- | --- | --- | --- |
| CO[C@H]1C[C@@H]2CC[C@@H](C)[C@@](O)(O2)C(=O)C(=O)N2CCCC[C@H]2C(=O)O[C@H]([C@H](C)C[C@@H]2CC[C@@H](OC(=O)C(C)(CO)CO)[C@H](OC)C2)CC(=O)[C@H](C)/C=C(\C)[C@@H](O)[C@@H](OC)C(=O)[C@H](C)C[C@H](C)/C=C/C=C/C=C/1C [temsirolimus, (1R,2R,4S)-4-{(2R)-2-[(3S,6R,7E,9R,10R,12R,145,15E,17E,19E,215,23S,26R,27R,34aS)-9,27-dihydroxy-10,21-dimethoxy-6,8,12,14,20,26-hexamethyl-1,5,11,28,29-pentaoxo-1,4,5,6,9,10,11,12,13,14,21,22,23,24,25,26,27,28,29,31,32,33,34,34a-tetracosahydro-3H-23,27-epoxypyrido[2,1-c][1,4]oxazacyclohentriacontin-3-yl]propyl}-2-methoxycyclohexyl 3-hydroxy-2-(hydroxymethyl)-2-methylpropanoate] | does not affect the analgesic capacity of THC | does not avoid the anxiolytic effect | blocks the anxiogenic effects | blocks the amnesic effect | prevented the appearance of the THC cognitive deficit | does not have effects on the recognition memory | shows amnesic effects | – | – | – | – | – | – |
| CCCCCc1cc(O)c2c(c1)OC(C)(C)[C@@H]1CCC(C)=C[C@@H]21 [THC, (-)-(6aR,10aR)-6,6,9-trimethyl-3-pentyl-6a,7,8,10a-tetrahydro-6H-benzo[c]chromen-1-ol] | – | – | – | – | – | – | – | has analgesic effects | causes anxiolytic effects | cause anxiogenic effects | produces a cognitive deficit | continues showing a cognitive deficit during the following four days | always presents an amnesic effect |
